Data on two molecules can be found in patent US20250382322A1, “DIAGNOSTICS FOR DETECTING ECTO-5'-NUCLEOTIDASE (CD73)” (EBERHARD KARLS UNIVERSITÄT TÜBINGEN, priority 2022, published 2025).

The structures appear in SMILES notation.

In one assay the target is T1, human NTPDase3 (Homo sapiens, UniProt O75355).
T1 sequence (O75355 1-529): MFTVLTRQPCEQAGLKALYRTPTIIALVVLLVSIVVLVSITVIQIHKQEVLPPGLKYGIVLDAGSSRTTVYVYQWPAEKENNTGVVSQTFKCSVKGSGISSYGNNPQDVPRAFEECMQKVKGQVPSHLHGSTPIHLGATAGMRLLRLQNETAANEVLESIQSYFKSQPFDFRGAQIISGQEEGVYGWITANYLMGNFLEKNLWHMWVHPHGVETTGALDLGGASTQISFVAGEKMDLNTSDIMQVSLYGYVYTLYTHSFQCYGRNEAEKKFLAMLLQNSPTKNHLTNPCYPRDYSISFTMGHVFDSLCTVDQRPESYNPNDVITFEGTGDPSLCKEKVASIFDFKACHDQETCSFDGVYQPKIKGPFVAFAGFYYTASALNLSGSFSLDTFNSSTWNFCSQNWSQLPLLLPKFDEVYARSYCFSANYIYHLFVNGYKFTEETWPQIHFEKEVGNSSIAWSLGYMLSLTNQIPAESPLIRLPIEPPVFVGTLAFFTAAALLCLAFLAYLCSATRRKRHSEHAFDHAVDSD
The assay can be described thus: Capillary electrophoresis assay for human NTPDase3. The class given is biochemical. The note with it: ATP (100 μM) as substrate. Here is the method: (§1) Inhibitory activity of the CD73 inhibitors 2 and 20 at human NTPDases 1, 2, 3, and 8 was investigated using ATP (100 μM) as a substrate according to previously published procedures.^24 ATP and 2 were co-incubated with recombinantly expressed human NTPDases at 37° C. for 30 min, and the enzymatic reaction was terminated by heating at 90° C. for 10 min. The amount of enzyme preparation was adjusted to ensure 10-20% of substrate conversion. The formed products were separated by capillary electrophoresis (CE) and individually quantitated by diode array detection (DAD) at a wavelength of 260 nm. For inhibition analysis, at least three independent experiments were performed each in triplicate. The inhibition of the enzyme activity was calculated in relation to the positive control without inhibitor and plotted by GraphPad Prism 8 software (GraphPad software, San Diego, CA, USA) (for results see Table 2 and Table 3).
(§2) Test compounds were investigated at a concentration of 50 μM, and 100 μM ATP substrate according to published procedures.^24 Recombinantly expressed human NTPDases were employed. The amount of enzyme preparation was adjusted to ensure 10-20% of substrate conversion. […] The inhibition of the enzyme activity was calculated in relation to the positive control without inhibitor and plotted in GraphPad Prism 8 software (GraphPad software, San Diego, CA, USA). […]

The target in a further assay is T2, human NTPDase8 (Homo sapiens, UniProt Q5MY95).
T2 sequence (Q5MY95 1-495): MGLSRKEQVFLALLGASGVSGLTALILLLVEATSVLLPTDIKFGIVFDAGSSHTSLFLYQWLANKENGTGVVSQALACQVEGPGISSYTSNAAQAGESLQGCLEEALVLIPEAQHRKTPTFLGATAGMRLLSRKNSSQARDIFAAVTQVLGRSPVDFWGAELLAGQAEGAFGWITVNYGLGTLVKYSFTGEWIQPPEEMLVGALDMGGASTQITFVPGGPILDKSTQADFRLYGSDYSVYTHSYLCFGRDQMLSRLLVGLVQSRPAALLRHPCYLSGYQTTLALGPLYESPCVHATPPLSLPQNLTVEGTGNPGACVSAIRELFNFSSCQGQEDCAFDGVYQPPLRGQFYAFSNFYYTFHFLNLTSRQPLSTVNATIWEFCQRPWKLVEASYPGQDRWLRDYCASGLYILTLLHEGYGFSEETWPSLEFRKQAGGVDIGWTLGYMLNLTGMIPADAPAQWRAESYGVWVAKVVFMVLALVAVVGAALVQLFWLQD
The assay can be described thus: Capillary electrophoresis assay for human NTPDase8. The class given is biochemical. The settings on record: ATP (100 μM) as substrate. Here is the method: as §1, §2

The next assay has as its target T3, human P2Y12 receptor (Homo sapiens, UniProt Q9H244).
T3 construct: host or cells: CHO-PK1 cells (so in the source)
The assay can be described thus: β-arrestin recruitment assay at P2Y12 receptor. The class given is cell-based. The settings on record: CHO-PK1 cells; for IC50: 2-methylthio-ADP as agonist at EC80 (3 μM), read-out: Inhibition P2Y12 receptor IC50; for EC50: read-out: Activation P2Y12 receptor EC50. The source says: The interaction of 2 with the human P2Y12 receptor was investigated in a β-arrestin recruitment assay using the galactosidase complementation technology as previously described.^25-27 The human P2Y12 receptor was expressed in CHO-PK1 cells (Eurofins DiscoverX, Fremont, CA, USA). For results see Table 2 and Table 3.

T3 sequence (Q9H244 whole entry): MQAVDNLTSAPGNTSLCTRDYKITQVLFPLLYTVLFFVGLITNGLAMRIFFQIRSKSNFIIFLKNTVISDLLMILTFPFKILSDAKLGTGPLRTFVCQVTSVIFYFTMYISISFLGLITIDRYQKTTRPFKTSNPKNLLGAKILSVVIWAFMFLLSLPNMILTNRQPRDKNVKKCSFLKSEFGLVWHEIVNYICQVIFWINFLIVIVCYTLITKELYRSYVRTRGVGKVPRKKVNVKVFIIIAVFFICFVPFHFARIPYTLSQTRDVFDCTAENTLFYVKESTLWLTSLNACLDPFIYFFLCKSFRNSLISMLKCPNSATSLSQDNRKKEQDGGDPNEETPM

Take `CCCN(Cc1ccc(-c2cn(CCF)nn2)cc1)c1nc(Cl)nc2c1ncn2[C@@H]1O[C@H](COP(=O)(O)CP(=O)(O)O)C(O)C1O` (some centres unmarked) [Compound 2]: the IC50 (commonly the concentration that gives 50% inhibition) at human NTPDase3 is above 50 µM; against human NTPDase8 it was above 50 µM; on human P2Y12 receptor it was above 10 µM. Also, the EC50 – broadly, the concentration needed to bring the measured effect to its halfway point – at human P2Y12 receptor is above 10 µM.
For `O=C(NCCCCCCNC(=O)c1ccc2c(c1)C1(OC2=O)c2ccc(O)cc2Oc2cc(O)ccc21)c1ccc(CNc2nc(Cl)nc3c2ncn3[C@@H]2O[C@H](COP(=O)(O)CP(=O)(O)O)[C@@H](O)[C@H]2O)cc1` [Compound 20, (((((2R,3S,4R,5R)-5-(2-chloro-6-((4-((6-(3′,6′-dihydroxy-3-oxo-3H-spiro[isobenzofuran-1,9′-xanthene]-6-carboxamido)-hexyl)carbamoyl)benzyl)amino)-9H-purin-9-yl)-3,4-dihydroxytetrahydrofuran-2-yl)methoxy)(hydroxy)phosphoryl)methyl)phosphonic acid], the IC50 was 27.7 µM against human NTPDase3, below 50 µM against human NTPDase8 and above 10 µM at human P2Y12 receptor. Moreover, the EC50 on human P2Y12 receptor was above 10 µM.
